Tests used:
[1] = in water under ambient conditions; cited from earlier work
[2] = ozone release, first test: water added to powder in closed reactor, ozone detector; assay type: physicochemical; conditions: same conditions, after adding water
Description: In the first test, about 1.5 g of ozone storage material in powder form have been placed in a glass cup, which in turn has been placed in a glass reactor of volume 1.4 litres. The reactor can be hermetically closed and has been maintained at ambient temperature (˜20° C.).
A portable ozone detector (model X-an-5000 from Dräger, equipped with an XXS O3 cell specifically for ozone detection, detection limit equal to 0.02 ppm and resolution equal to 0.01 ppm, response time <10 s at 20° C.) has been introduced into the reactor and switched on near the powder cup. The detector thus placed makes it possible to continuously emphasise the presence of ozone in the reactor, from an ozone concentration higher than the detection limit of 0.02 ppm.
Secondly, using a graduated glass pipette, a volume of approximately 3 ml of distilled water has been introduced onto the powder through one of the upper openings of the reactor. The reactor has then been immediately hermetically closed again to monitor the course of the vapour phase composition of the reactor with the detector over time. The dissolution of part of the material (about ⅓ of the initial amount) by this addition of water (as the material is relatively soluble in water), caused a rapid increase in the ozone concentration over time as read on the detector (for example 0.1 ppm measured in 40 s; 0.2 ppm in 100 s). […]

## O=[O+][O-] [ozone]
[1]
  lifetime: about 20 minutes

## (2-hydroxypropyl)-β-cyclodextrin [native HP-β-CD]
[2]
  ozone release on the detector: no ozone release was observed
